According to US20160326558A1, “Process for Stimulating Hyaluronic Acid Production with Ascorbic Acid Derivatives and the Composition Thereof” (CORUM INC., priority 2012, published 2016):
Where “and” joins values, the source holds several entries; their conditions need not be identical. Equal values may be shown once. Entries after “also recorded” stand apart in the source; their conditions may differ.

What was measured:
Type in all cases: cell-based
mouse fibroblast (3T3) [1] = assay: Cell viability of mouse fibroblast (Example 1); settings: concentration larger than 7500 ppm
mouse fibroblast (3T3) [2] = assay: Hyaluronic acid content stimulated by 3-O-ethyl ascorbic acid and AA2G in mouse fibroblast (Table 6); settings: for Hyaluronic Acid Content Stimulated, Average / Hyaluronic Acid Content Stimulated, single entries: vs negative control = 100%
human fibroblast (Hs68) [3] = assay: Cell viability of human fibroblast (Example 2); settings: 10000 ppm
mouse fibroblast (3T3) [4] = assay: Stimulating hyaluronic acid production in mouse fibroblast, R&D HA-ELISA (Examples 3 and 5); settings: for Hyaluronic Acid Content Stimulated, Average / Hyaluronic Acid Content Stimulated, single entries: 72 h, vs negative control = 100%
Method: (§1) Complete medium is used in cell seeding stage. The confluent 3T3 cells are rinsed with sterile D-PBS, and trypsinize all cells and perform cell counting. Then, dilute the cell density to 4E+04/mL and seed 0.5 mL cell liquid (equals to 2E+04 cells) each well in 24 well plates. Incubate 3T3 cells at 37° C., 5% CO2 for about 24 hours. Starvation medium is used in this stage. The 24-hour-cultured 3T3 cells are rinsed with sterile D-PBS and discarded rinse buffer. Controls and testing materials in different concentrations are respectively added into the 3T3 cells in 24 well plates. Then, the 3T3 cells are incubated at 37° C., with 5% CO2 for about 72 hours. After incubating for about 72 hours, transfer some supernatant of cells treated with controls and testing materials into new containers. Centrifuge the supernatants at 2000 rpm for 5˜10 minutes. The hyaluronic acid content of the centrifuged supernatants are respectively determined by Hyaluronan Enzyme-Linked Immunosorbent Assay Kit, and calculated with the following Formula 1. [formula] In this example, we try another brand HA-ELISA kit (R&D; Cat No. DHYAL0) to figure out the reproducibility of the stimulatory effect. Excluding replacing the HA-ELISA kit, the materials and the procedures can be referred to the above Example 1. In this example, we try to figure out whether the stimulatory effect also can be found on ascorbic acid. Excluding replacing the HA-ELISA kit to another brand HA-ELISA kit (R&D; Cat No. DHYAL0) and replacing the testing material to ascorbic acid, the other materials and the procedures can be referred to the above Example 1.

human fibroblast (Hs68) [5] = assay: Stimulating hyaluronic acid production in human fibroblast, Echelon HA-ELISA (Example 2); settings: for Hyaluronic Acid Content Stimulated, Average / Hyaluronic Acid Content Stimulated, single entries: 72 h, vs negative control = 100%
Text: (§2) Cell Line: Hs68 (BCRC 60038, purchased from Bioresource Collection and Research Center) Complete Medium (as positive control): DMEM medium with 10% Fetal Bovine Serum (DMEM purchased from Corning Incorporated and Caisson Labs; FBS purchased from Caisson Labs) Starvation Medium (as negative control): DMEM medium with 0.1% Fetal Bovine Serum (DMEM purchased from Corning Incorporated and Caisson Labs; FBS purchased from Caisson Labs) Hyaluronan Enzyme-Linked Immunosorbent Assay Kit (HA-ELISA) (Brand: Echelon/Cat No K-1200) Complete medium is used in cell seeding stage. The confluent Hs68 cells are rinsed with sterile D-PBS, and trypsinize all cells and perform cell counting. Then, dilute the cell density to 4E+04/mL and seed 0.5 mL cell liquid (equals to 2E+04 cells) each well in 24 well plates. Incubate Hs68 cells at 37° C., 5% CO2 for about 24 hours. Starvation medium is used in this stage. The 24-hour-cultured Hs68 cells are rinsed with sterile D-PBS and discarded rinse buffer. Controls and testing materials in different concentrations are respectively added into the Hs68 cells in 24 well plates. Then, the Hs68 cells are incubated at 37° C., with 5% CO2 for about 72 hours. After incubating for about 72 hours, transfer some supernatant of cells treating with controls and testing materials into new containers. Centrifuge the supernatants at 2000 rpm for 5˜10 minutes. The hyaluronic acid content of the centrifuged supernatants are respectively determined by Hyaluronan Enzyme-Linked Immunosorbent Assay Kit, and calculated with the following Formula 2. [formula]

human fibroblast (Hs68) [6] = assay: Stimulating hyaluronic acid production in human fibroblast, R&D HA-ELISA (Example 4); settings: for Hyaluronic Acid Content Stimulated, Average / Hyaluronic Acid Content Stimulated, single entries: 72 h, vs negative control = 100%
Method: as §1, with “Hs68” for “3T3”, “treating” for “treated”, “2.” for “1.”, “study” for “figure out”, “2.” for “1. In this example, we try to figure out whether the stimulatory effect also can be found on ascorbic acid. Excluding replacing the HA-ELISA kit to another brand HA-ELISA kit (R&D; Cat No. DHYAL0) and replacing the testing material to ascorbic acid, the other materials and the procedures can be referred to the above Example 1.”

mouse fibroblast (3T3) [7] = assay: Stimulating hyaluronic acid production in mouse fibroblast, Echelon HA-ELISA (Example 1)
Text: as §2, with “3T3” for “Hs68”, “60071,” for “60038,”, “0.1%” for “0.1% Fetal”, “treated” for “treating”, “1.” for “2.”

[8] = 5000 ppm, 72 h, vs negative control = 100%

## CCOC1=C(O)C(=O)O[C@@H]1[C@@H](O)CO [3-O-ethyl-ascorbic acid]
Mouse fibroblast (3T3) [1]
  cell viability: inhibited
Mouse fibroblast (3T3) [2]; 10 ppm
  Hyaluronic Acid Content Stimulated, Average: 122%
  Hyaluronic Acid Content Stimulated, single entries: 125% and 122% and 118%
Mouse fibroblast (3T3) [2]; 100 ppm
  Hyaluronic Acid Content Stimulated, Average: 138%
  Hyaluronic Acid Content Stimulated, single entries: 115% and 161% and 138%
Mouse fibroblast (3T3) [2]; 1000 ppm
  Hyaluronic Acid Content Stimulated, Average: 171%
  Hyaluronic Acid Content Stimulated, single entries: 180% and 165% and 168%
Mouse fibroblast (3T3) [2]; Table 6, 10-1000 ppm
  stimulatory of producing hyaluronic acid (in words): helpful to the stimulatory of producing hyaluronic acid
Human fibroblast (Hs68) [3]
  cell viability: inhibited
Mouse fibroblast (3T3) [4]; 1.25 ppm
  Hyaluronic Acid Content Stimulated, Average: 143.0%
  Hyaluronic Acid Content Stimulated, single entries: 100.0% and 156.8% and 172.0%
Mouse fibroblast (3T3) [4]; 2.5 ppm
  Hyaluronic Acid Content Stimulated, Average: 145.9%
  Hyaluronic Acid Content Stimulated, single entries: 119.7% and 135.2% and 182.8%
Mouse fibroblast (3T3) [4]; 5 ppm
  Hyaluronic Acid Content Stimulated, Average: 137.1%
Mouse fibroblast (3T3) [4]; 7.5 ppm
  Hyaluronic Acid Content Stimulated, Average: 135.9%
  Hyaluronic Acid Content Stimulated, single entries: 115.9% and 143.8% and 148.1%
Mouse fibroblast (3T3) [4]; 10 ppm, Table 3
  Hyaluronic Acid Content Stimulated, Average: 147.1%
  Hyaluronic Acid Content Stimulated, single entries: 101.0% and 158.1% and 182.2%
Mouse fibroblast (3T3) [4]; 100 ppm, Table 3
  Hyaluronic Acid Content Stimulated, Average: 171.2%
  Hyaluronic Acid Content Stimulated, single entries: 166.8% and 155.7% and 191.2%
Mouse fibroblast (3T3) [4]; 1000 ppm
  Hyaluronic Acid Content Stimulated, Average: 177.8%
Mouse fibroblast (3T3) [4]; 2500 ppm
  Hyaluronic Acid Content Stimulated, Average: 159.3%
  Hyaluronic Acid Content Stimulated, single entries: 148.7% and 176.3% and 152.8%
Mouse fibroblast (3T3) [4]; 5000-5 ppm
  stimulated hyaluronic acid production, dose dependence (in words): dose-dependently
Mouse fibroblast (3T3) [4]; 5000 ppm
  Hyaluronic Acid Content Stimulated, Average: 184.2%
  Hyaluronic Acid Content Stimulated, single entries: 131.8% and 180.4%
Mouse fibroblast (3T3) [4]; 7500 ppm
  Hyaluronic Acid Content Stimulated, Average: 143.8%
  Hyaluronic Acid Content Stimulated, single entries: 119.9% and 130.8% and 180.7%
Mouse fibroblast (3T3) [4]; 10000 ppm
  Hyaluronic Acid Content Stimulated, Average: 109.0%
Human fibroblast (Hs68) [5]; 10 ppm
  Hyaluronic Acid Content Stimulated, Average: 107.2%
  Hyaluronic Acid Content Stimulated, single entries: 92.7% and 123.3% and 105.7%
Human fibroblast (Hs68) [5]; 100 ppm
  Hyaluronic Acid Content Stimulated, Average: 148.8%
  Hyaluronic Acid Content Stimulated, single entries: 200.9% and 130.3% and 115.1%
Human fibroblast (Hs68) [5]; 1000-10 ppm
  stimulated hyaluronic acid production, dose dependence (in words): dose-dependently
Human fibroblast (Hs68) [5]; 1000 ppm
  Hyaluronic Acid Content Stimulated, Average: 182.7%
  Hyaluronic Acid Content Stimulated, single entries: 170.1% and 172.6%
Human fibroblast (Hs68) [5]; 10000 ppm
  Hyaluronic Acid Content Stimulated, Average: 32.5%
Human fibroblast (Hs68) [6]; 1.25 ppm
  Hyaluronic Acid Content Stimulated, Average: 112.6%
  Hyaluronic Acid Content Stimulated, single entries: 102.1% and 126.8% and 102.4% and 119.0%
Human fibroblast (Hs68) [6]; 2.5 ppm
  Hyaluronic Acid Content Stimulated, Average: 136.7%
  Hyaluronic Acid Content Stimulated, single entries: 149.7% and 125.3% and 111.4% and 160.5%
Human fibroblast (Hs68) [6]; 5 ppm
  Hyaluronic Acid Content Stimulated, Average: 123.1%
  Hyaluronic Acid Content Stimulated, single entries: 110.6% and 110.9% and 103.8% and 167.0%
Human fibroblast (Hs68) [6]; 7.5 ppm
  Hyaluronic Acid Content Stimulated, Average: 134.0%
Human fibroblast (Hs68) [6]; 10 ppm
  Hyaluronic Acid Content Stimulated, Average: 97.7%
  Hyaluronic Acid Content Stimulated, single entries: 89.1% and 101.2% and 91.2% and 109.5%
Human fibroblast (Hs68) [6]; 100 ppm
  Hyaluronic Acid Content Stimulated, Average: 121.9%
Human fibroblast (Hs68) [6]; 1000 ppm
  Hyaluronic Acid Content Stimulated, Average: 133.9%
  Hyaluronic Acid Content Stimulated, single entries: 125.4% and 134.8% and 122.6% and 152.7%
Human fibroblast (Hs68) [6]; 2500 ppm
  Hyaluronic Acid Content Stimulated, Average: 103.6%
  Hyaluronic Acid Content Stimulated, single entries: 99.2% and 96.7% and 78.7% and 140.0%
Human fibroblast (Hs68) [6]; 5000 ppm
  Hyaluronic Acid Content Stimulated, Average: 91.0%
  Hyaluronic Acid Content Stimulated, single entries: 110.0% and 70.6% and 103.2% and 80.3%
Human fibroblast (Hs68) [6]; 7500 ppm
  Hyaluronic Acid Content Stimulated, Average: 73.1%
Human fibroblast (Hs68) [6]; 10000 ppm
  Hyaluronic Acid Content Stimulated, Average: 40.7%
  Hyaluronic Acid Content Stimulated, single entries: 50.9% and 32.1% and 37.2% and 42.4%
Human fibroblast (Hs68) [6]; about 1000-10 ppm
  stimulated hyaluronic acid production, dose dependence (in words): dose-dependently
Mouse fibroblast (3T3) [7]; 10-5000 ppm
  stimulated hyaluronic acid production (in words): efficiently increased
Mouse fibroblast (3T3) [7]; 10 ppm, 72 h, vs negative control = 100%
  Hyaluronic Acid Content Stimulated, Average: 164.6%
Mouse fibroblast (3T3) [7]; 100 ppm, 72 h, vs negative control = 100%
  Hyaluronic Acid Content Stimulated, Average: 133.1%
Mouse fibroblast (3T3) [7]; 1000 ppm, 72 h, vs negative control = 100%
  Hyaluronic Acid Content Stimulated, Average: 148.9%
Mouse fibroblast (3T3) [7]; 2500 ppm, 72 h, vs negative control = 100%
  Hyaluronic Acid Content Stimulated, Average: 165.0%
Mouse fibroblast (3T3) [7]; [8]
  Hyaluronic Acid Content Stimulated, Average: 149.0%
  Hyaluronic Acid Content Stimulated, single entries: 110.3% and 214.1% and 161.9% and 109.6%
Mouse fibroblast (3T3) [7]; 7500 ppm, 72 h, vs negative control = 100%
  Hyaluronic Acid Content Stimulated, Average: 91.0%
Mouse fibroblast (3T3) [7]; 10000 ppm, 72 h, vs negative control = 100%
  Hyaluronic Acid Content Stimulated, Average: 89.4%

## O=C1O[C@H]([C@@H](O)CO)C(O)=C1O [Ascorbic Acid, ascorbic acid]
Mouse fibroblast (3T3) [4]; 2-100 ppm, comparing to the negative control
  stimulation of hyaluronic acid production (in words): can NOT stimulate hyaluronic acid production; also recorded: cannot be helpful
Mouse fibroblast (3T3) [4]; 2 ppm, Table 5
  Hyaluronic Acid Content Stimulated, Average: 94%
  Hyaluronic Acid Content Stimulated, single entries: 99% and 64% and 119%
Mouse fibroblast (3T3) [4]; 10 ppm, Table 5
  Hyaluronic Acid Content Stimulated, Average: 101%
  Hyaluronic Acid Content Stimulated, single entries: 93% and 108% and 101%
Mouse fibroblast (3T3) [4]; 50 ppm, Table 5
  Hyaluronic Acid Content Stimulated, Average: 102%
  Hyaluronic Acid Content Stimulated, single entries: 105% and 100% and 102%
Mouse fibroblast (3T3) [4]; 100 ppm, Table 5
  Hyaluronic Acid Content Stimulated, Average: 91%
  Hyaluronic Acid Content Stimulated, single entries: 87% and 93% and 94%
